Molecular target: jack bean urease (EC 3.5.1.5) (Canavalia ensiformis, UniProt P07374)
Experiment: Urease inhibition method
Type: biochemical
Conditions: not given

Chain of jack bean urease (EC 3.5.1.5) (P07374 whole entry, looked up): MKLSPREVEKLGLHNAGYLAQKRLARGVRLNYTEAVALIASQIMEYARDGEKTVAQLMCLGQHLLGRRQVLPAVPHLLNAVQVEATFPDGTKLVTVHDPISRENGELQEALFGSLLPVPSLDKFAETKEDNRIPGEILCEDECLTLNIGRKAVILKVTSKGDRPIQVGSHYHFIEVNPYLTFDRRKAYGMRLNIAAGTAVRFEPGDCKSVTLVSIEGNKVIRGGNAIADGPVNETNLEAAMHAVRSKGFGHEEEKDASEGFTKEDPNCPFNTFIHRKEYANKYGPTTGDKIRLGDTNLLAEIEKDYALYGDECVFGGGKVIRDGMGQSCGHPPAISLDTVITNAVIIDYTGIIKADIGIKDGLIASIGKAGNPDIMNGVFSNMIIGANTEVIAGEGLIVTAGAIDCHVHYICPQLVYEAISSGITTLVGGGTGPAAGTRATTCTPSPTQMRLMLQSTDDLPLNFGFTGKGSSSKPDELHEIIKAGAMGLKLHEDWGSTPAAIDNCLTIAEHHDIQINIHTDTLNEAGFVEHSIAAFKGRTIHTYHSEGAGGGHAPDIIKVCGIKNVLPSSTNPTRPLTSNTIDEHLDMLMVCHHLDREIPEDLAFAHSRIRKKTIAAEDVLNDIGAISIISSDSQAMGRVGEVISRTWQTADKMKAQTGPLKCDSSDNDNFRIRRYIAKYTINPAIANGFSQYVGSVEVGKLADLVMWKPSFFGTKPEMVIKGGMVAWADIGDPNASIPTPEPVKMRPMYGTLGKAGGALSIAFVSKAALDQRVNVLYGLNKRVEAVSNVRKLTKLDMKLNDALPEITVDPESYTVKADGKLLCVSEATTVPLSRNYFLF

| SMILES | IC50 [nM] |
| --- | --- |
| CC(C)N1C(=O)c2ccccc2C1C1C(=O)NC(=O)NC1=O (stereo not shown) [5l, 5-(2-Isopropyl-3-oxoisoindolin-1-yl) Barbituric Acid] | 1850 ± 60 |
| O=C1NC(=O)C(C2c3ccccc3C(=O)N2c2ccc(Cl)c(Cl)c2)C(=O)N1 (stereo not shown) [5f, 5-(2-(3,4-Dichlorophenyl)-3-oxoisoindolin-1-yl) Barbituric Acid] | 960 ± 10 |
| O=C1NC(=O)C(C2c3ccccc3C(=O)N2c2cccc(Cl)c2)C(=O)N1 (stereo not shown) [5i, 5-(2-(3-Chlorophenyl)-3-oxoisoindolin-1-yl) Barbituric Acid] | 1220 ± 50 |
| O=C1NC(=O)C(C2c3ccccc3C(=O)N2c2ccc(F)cc2)C(=O)N1 (stereo not shown) [5h, 5-(2-(4-Fluorophenyl)-3-oxoisoindolin-1-yl) Barbituric Acid] | 1280 ± 40 |
| COc1ccc(N2C(=O)c3ccccc3C2C2C(=O)NC(=S)NC2=O)cc1 (stereo not shown) [5n, 5-(2-(4-Methoxyphenyl)-3-oxoisoindolin-1-yl)-2-thiobarbituric Acid] | 1340 ± 10 |
| Cc1ccc(N2C(=O)c3ccccc3C2C2C(=O)NC(=O)NC2=O)cc1 (stereo not shown) [5g, 5-(3-Oxo-2-(p-tolyl) Isoindolin-1-yl) Barbituric Acid] | 1090 ± 70 |
| COc1ccc(N2C(=O)c3ccccc3C2C2C(=O)N(C)C(=O)N(C)C2=O)cc1 (stereo not shown) [5m, 1,3-Dimethyl-5-(2-(4-methoxyphenyl)-3-oxoisoindolin-1-yl) Barbituric Acid] | 970 ± 10 |
| Cc1ccc(N2C(=O)c3ccccc3C2C2C(=O)NC(=O)NC2=O)cc1C (stereo not shown) [5d, 5-(2-(3,4-Dimethylphenyl)-3-oxoisoindolin-1-yl) Barbituric Acid] | 1070 ± 20 |
| O=C1NC(=O)C(C2c3ccccc3C(=O)N2c2ccc(Br)cc2)C(=O)N1 (stereo not shown) [5e, 5-(2-(4-Bromophenyl)-3-oxoisoindolin-1-yl) Barbituric Acid] | 960 ± 10 |
| O=C1NC(=O)C(C2c3ccccc3C(=O)N2c2ccc(Cl)cc2)C(=O)N1 (stereo not shown) [5c, 5-(2-(4-Chlorophenyl)-3-oxoisoindolin-1-yl) Barbituric Acid] | 1250 ± 50 |
| O=C1NC(=O)C(C2c3ccccc3C(=O)N2c2ccccc2)C(=O)N1 (stereo not shown) [5a, 5-(3-Oxo-2-phenylisoindolin-1-yl) Barbituric Acid] | 1850 ± 60 |
| O=C1NC(=O)C(C2c3ccccc3C(=O)N2c2cc(Cl)cc(Cl)c2)C(=O)N1 (stereo not shown) [5j, 5-(2-(3,5-Dichlorophenyl)-3-oxoisoindolin-1-yl) Barbituric Acid] | 1780 ± 100 |
| CC(C)CN1C(=O)c2ccccc2C1C1C(=O)NC(=O)NC1=O (stereo not shown) [5k, 5-(2-Isobutyl-3-oxoisoindolin-1-yl) Barbituric Acid] | 1620 ± 50 |
| COc1ccc(N2C(=O)c3ccccc3C2C2C(=O)NC(=O)NC2=O)cc1 (stereo not shown) [5b, 5-(2-(4-Methoxyphenyl)-3-oxoisoindolin-1-yl) Barbituric Acid] | 820 ± 30 |

Same assay, conditions: read-out: IC50 ± SEM; jack bean urease; triplicate, mean ± SEM

| SMILES | IC50 [nM] |
| --- | --- |
| NC(N)=S [thiourea, reference compound] | 22000 ± 1200 |

Test system: not listed separately
Experiment: Solubility in solvents for NMR
Type: physicochemical
Conditions: not given

| SMILES | solubility in solvents |
| --- | --- |
| CN1C(=O)C(C2OC(=O)c3ccccc32)C(=O)N(C)C1=O (stereo not shown) [3b, 1,3-Dimethyl-5-(3-oxo-1,3-dihydroisobenzofuran-1-yl) Barbituric Acid] | soluble in CHCl3 |

Source: publication PMC9202281 (ACS Omega, 2022)
